Assay results as given in US6361981B1, “Production of ammonium acrylate” (Ciba Specialty Chemicals Water Treatments Limited, priority 1995, dated 2002).

Assays:
[1] = test system: nitrilase, a preferred enzyme on which initial experiments were conducted (particularly preferred enzyme: Rhodococcus rhodochrous NCIMB 40757); test: Km, Ki of preferred nitrilase in whole cell form (Michaelis-Menten kinetics); format: biochemical
Description: The enzyme must have Km for (meth) acrylonitrile, that is whichever of acrylonitrile and (meth) acrylonitrile is being converted, below 500 μm and Ki for ammonium acrylate or ammonium (meth) acrylate, whichever is being produced, above 100,000 μM. In this specification Km and Ki are measured under conditions in which the enzyme obeys Michaelis-Menten kinetics, in particular at pH 7. A preferred measurement technique uses enzyme in whole cell form in 50 mM sodium phosphate buffer at pH 7 and 30° C. and using concentrations of acrylonitrile from 0.01 to 0.5 mM (for Km) and using 1.2 M ammonium acrylate and 0.079 to 0.554 mM acrylonitrile (for Ki).

[2] = test system: nitrilase enzyme discussed in Biotech and Appl Biochem 11, 581 to 601 (1989); settings: literature value; read-out: Km for acrylonitrile; cited from earlier work
[3] = test system: R rhodochrous K22 nitrilase; settings: literature value; read-out: Km for acrylonitrile; cited from earlier work

| SMILES | Km ([1]; whole cell form, preferred technique: 50 mM sodium phosphate buffer, pH 7, 30° C., acrylonitrile 0.01 to 0.5 mM) | Km [2] | Km [3] | ratio Ki/Km ([1]; Ki for ammonium acrylate / Km for acrylonitrile) |
| --- | --- | --- | --- | --- |
| C=CC#N [acrylonitrile] | 30.6 µM | 17000 µM | 1140 µM | – |
| C=CC(=O)O [ammonium acrylate] | – | – | – | greater than 10,000 |
